Measurements: ChEMBL document CHEMBL1201861, “Genomics of Drug Sensitity in Cancer screening data, Wellcome Trust Sanger Institute”

Key:
Assay in all cases: cells
DB = assay type: functional, cell-based; settings: Homo sapiens
Description: SANGER: Inhibition of human DB cell growth in a cell viability assay.

EOL1 = assay type: functional, cell-based; settings: Homo sapiens;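 further: growth inhibition of EoL-1 cells, read out by a cell viability assay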
Description: SANGER: Inhibition of human EoL-1-cell cell growth in a cell viability assay.

HAL-01 = assay type: functional, cell-based; settings: Homo sapiens;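 further: growth inhibition of human HAL-01 cells, read out with a cell viability assay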
Description: SANGER: Inhibition of human HAL-01 cell growth in a cell viability assay.

HCC2157 = assay type: functional, cell-based; settings: Homo sapiens;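 further: growth inhibition of the cancer cell line, read out as cell viability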
Description: SANGER: Inhibition of human HCC2157 cell growth in a cell viability assay.

HCC 2998 = assay type: functional, cell-based, Homo sapiens; settings: Homo sapiens, HCC 2998;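 further: growth inhibition of human HCC2998 cells, measured with a cell viability read-out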
Description: SANGER: Inhibition of human HCC2998 cell growth in a cell viability assay.

HT-144 = assay type: functional, cell-based, Homo sapiens; settings: Homo sapiens, HT-144
Description: SANGER: Inhibition of human HT-144 cell growth in a cell viability assay.

KINGS-1 = assay type: functional, cell-based, Homo sapiens; settings: Homo sapiens, KINGS-1;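 further: cell viability assay measuring suppression of KINGS-1 cell growth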
Description: SANGER: Inhibition of human KINGS-1 cell growth in a cell viability assay.

KMOE-2 = assay type: functional, cell-based; settings: Homo sapiens;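 further: growth inhibition of human KMOE-2 cells, read out with a cell viability assay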
Description: SANGER: Inhibition of human KMOE-2 cell growth in a cell viability assay.

L-363 = assay type: functional, cell-based; settings: Homo sapiens
Description: SANGER: Inhibition of human L-363 cell growth in a cell viability assay.

LB771-HNC = assay type: functional, cell-based, Homo sapiens; settings: Homo sapiens, LB771-HNC;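 further: growth inhibition of LB771-HNC human cells, read out with a cell viability assay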
LXF-289 cell line = assay type: functional, cell-based, Homo sapiens; settings: Homo sapiens, LXF-289
Description: SANGER: Inhibition of human LXF-289 cell growth in a cell viability assay.

MZ1-PC = assay type: functional, cell-based, Homo sapiens; settings: Homo sapiens, MZ1-PC;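 further: cell viability assay measuring growth inhibition of human MZ1-PC cells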
Description: SANGER: Inhibition of human MZ1-PC cell growth in a cell viability assay.

MZ7-mel = assay type: functional, cell-based, Homo sapiens; settings: Homo sapiens, MZ7-mel;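 further: growth inhibition of human MZ7-mel cells, measured by a cell viability assay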
NCI-H1155 = assay type: functional, cell-based; settings: Homo sapiens;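 further: cell growth inhibition measured by a viability assay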
Description: SANGER: Inhibition of human NCI-H1155 cell growth in a cell viability assay.

NCI-H1395 = assay type: functional, cell-based, Homo sapiens; settings: Homo sapiens, NCI-H1395;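 further: cell viability assay read-out quantifying reduced proliferation of human NCI-H1395 cells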
Description: SANGER: Inhibition of human NCI-H1395 cell growth in a cell viability assay.

NTERA-2-cl-D1 = assay type: functional, cell-based, Homo sapiens; settings: Homo sapiens, NTERA-2-cl-D1;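 further: inhibition of cell growth, measured with a cell viability assay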
Description: SANGER: Inhibition of human NTERA-S-cl-D1 cell growth in a cell viability assay.

RKO = assay type: functional, cell-based, Homo sapiens; settings: Homo sapiens, RKO;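 further: growth inhibition of human RKO cells, read out with a cell viability assay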
RPMI-8226 = assay type: functional, cell-based; settings: Homo sapiens
Description: SANGER: Inhibition of human RPMI-8226 cell growth in a cell viability assay.

SF-539 = assay type: functional, cell-based, Homo sapiens; settings: Homo sapiens, SF-539;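 further: Read-out is a cell viability assay, with IC50 reflecting inhibition of cell growth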
Description: SANGER: Inhibition of human SF539 cell growth in a cell viability assay.

SH-4 = assay type: functional, cell-based, Homo sapiens; settings: Homo sapiens, SH-4;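 further: growth inhibition of SH-4 cells, read out with a cell viability assay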
Description: SANGER: Inhibition of human SH-4 cell growth in a cell viability assay.

SK-MEL-1 = assay type: functional, cell-based; settings: Homo sapiens;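 further: growth inhibition of human SK-MEL-1 cells, read out by a cell viability assay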
Description: SANGER: Inhibition of human SK-MEL-1 cell growth in a cell viability assay.

SW 954 = assay type: functional, cell-based, Homo sapiens; settings: Homo sapiens, SW 954;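 further: growth inhibition of SW954 human cancer cells, read out as cell viability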
Description: SANGER: Inhibition of human SW954 cell growth in a cell viability assay.

TE-1 = assay type: functional, cell-based, Homo sapiens; settings: Homo sapiens, TE-1;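 further: growth inhibition of the human TE-1 cell line, read out with a cell viability assay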
Description: SANGER: Inhibition of human TE-1 cell growth in a cell viability assay.

ATN-1 = assay type: functional, cell-based; settings: Homo sapiens;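 further: growth inhibition of human ATN-1 cells, read out with a cell viability assay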
Description: SANGER: Inhibition of human ATN-1 cell growth in a cell viability assay.

BB30-HNC = assay type: functional, cell-based, Homo sapiens; settings: Homo sapiens, BB30-HNC;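 further: growth inhibition of the cultured cell line, read out by a cell viability assay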
Description: SANGER: Inhibition of human BB30-HNC cell growth in a cell viability assay.

BB65-RCC = assay type: functional, cell-based, Homo sapiens; settings: Homo sapiens, BB65-RCC;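 further: growth inhibition of the cell line, measured with a cell viability assay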
Description: SANGER: Inhibition of human BB65-RCC cell growth in a cell viability assay.

TE-8 = assay type: functional, cell-based, Homo sapiens; settings: Homo sapiens, TE-8;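 further: growth inhibition of TE-8 cells, measured with a cell viability readout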
Description: SANGER: Inhibition of human TE-8 cell growth in a cell viability assay.

TK-10 = assay type: functional, cell-based, Homo sapiens; settings: Homo sapiens, TK-10;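 further: growth inhibition of TK-10 cells, read out in a cell viability assay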
Description: SANGER: Inhibition of human TK10 cell growth in a cell viability assay.

U-87 MG = assay type: functional, cell-based, U-87MG ATCC; settings: Homo sapiens;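 further: growth inhibition of the cells measured with a viability assay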
Description: SANGER: Inhibition of human U-87-MG cell growth in a cell viability assay.

NCI-N87 = assay type: functional, cell-based, Homo sapiens; settings: Homo sapiens, NCI-N87;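 further: growth inhibition of human NCI-N87 cells, read out with a cell viability assay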
Description: SANGER: Inhibition of human NCI-N87 cell growth in a cell viability assay.

| SMILES | IC50 (DB) [nM] | IC50 (EOL1) [nM] | IC50 (HAL-01) [nM] | IC50 (HCC2157) [nM] | IC50 (HT-144) [nM] | IC50 (KINGS-1) [nM] | IC50 (KMOE-2) [nM] | IC50 (L-363) [nM] | IC50 (LB771-HNC) [nM] | IC50 (LXF-289 cell line) [nM] | IC50 (MZ1-PC) [nM] | IC50 (MZ7-mel) [nM] | IC50 (NCI-H1155) [nM] | IC50 (NCI-H1395) [nM] | IC50 (NTERA-2-cl-D1) [nM] | IC50 (RKO) [nM] | IC50 (RPMI-8226) [nM] | IC50 (SF-539) [nM] | IC50 (SH-4) [nM] | IC50 (SK-MEL-1) [nM] | other results |
| --- | --- | --- | --- | --- | --- | --- | --- | --- | --- | --- | --- | --- | --- | --- | --- | --- | --- | --- | --- | --- | --- |
| CC1=C2C[C@H]3[C@@H](CC=C4C[C@@H](O)CC[C@@]43C)[C@@H]2CC[C@]12O[C@@H]1C[C@H](C)CN[C@H]1[C@H]2C [CYCLOPAMINE] | > 16000 | > 16000 | > 16000 | > 16000 | > 16000 | > 16000 | > 16000 | > 16000 | > 16000 | > 16000 | > 16000 | > 16000 | > 16000 | > 16000 | > 16000 | > 16000 | > 16000 | > 16000 | > 16000 | > 16000 | IC50 (HCC 2998): > 16 µM; IC50 (SW 954): > 16000 nM; IC50 (TE-1): > 16000 nM; IC50 (ATN-1): > 16000 nM; IC50 (BB30-HNC): > 16000 nM; IC50 (BB65-RCC): > 16000 nM; IC50 (TE-8): > 16000 nM; IC50 (TK-10): > 16000 nM; IC50 (U-87 MG): > 16000 nM |
| CS(=O)(=O)CCNCc1ccc(-c2ccc3ncnc(Nc4ccc(OCc5cccc(F)c5)c(Cl)c4)c3c2)o1 [LAPATINIB] | > 2000 | > 2000 | > 2000 | > 2000 | > 2000 | > 2000 | > 2000 | > 2000 | > 2000 | > 2000 | > 2000 | > 2000 | > 2000 | > 2000 | > 2000 | > 2000 | > 2000 | > 2000 | > 2000 | > 2000 | IC50 (HCC 2998): > 2 µM; IC50 (SW 954): > 2000 nM; IC50 (TE-1): > 2000 nM; IC50 (ATN-1): > 2000 nM; IC50 (BB30-HNC): 247 nM; IC50 (BB65-RCC): > 2000 nM; IC50 (TE-8): > 2000 nM; IC50 (TK-10): > 2000 nM; IC50 (U-87 MG): > 2000 nM |
| CCc1nc(N)nc(N)c1-c1ccc(Cl)cc1 [PYRIMETHAMINE] | > 20000 | > 20000 | 4740 | > 20000 | 6800 | > 20000 | > 20000 | > 20000 | > 20000 | > 20000 | > 20000 | 7560 | > 20000 | > 20000 | > 20000 | > 20000 | > 20000 | 2550 | > 20000 | > 20000 | IC50 (HCC 2998): 5.78 µM; IC50 (SW 954): > 20000 nM; IC50 (TE-1): 9920 nM; IC50 (ATN-1): 1780 nM; IC50 (BB30-HNC): > 20000 nM; IC50 (BB65-RCC): > 20000 nM; IC50 (TE-8): > 20000 nM; IC50 (TK-10): 7420 nM; IC50 (U-87 MG): > 20000 nM |
| O=C(/C=C/c1ccccc1)NC(NC(=S)Nc1cccc2cccnc12)C(Cl)(Cl)Cl (configuration not stated) [SALUBRINAL] | > 16000 | > 16000 | 9320 | > 16000 | > 16000 | > 16000 | 13100 | 13600 | > 16000 | 11200 | > 16000 | > 16000 | > 16000 | > 16000 | 12900 | > 16000 | > 16000 | > 16000 | > 16000 | > 16000 | IC50 (HCC 2998): > 16 µM; IC50 (SW 954): > 16000 nM; IC50 (TE-1): > 16000 nM; IC50 (ATN-1): 12000 nM; IC50 (BB30-HNC): > 16000 nM; IC50 (BB65-RCC): > 16000 nM; IC50 (TE-8): > 16000 nM; IC50 (TK-10): > 16000 nM; IC50 (U-87 MG): > 16000 nM |
| CN1CCN(CCOc2cc(OC3CCOCC3)c3c(Nc4c(Cl)ccc5c4OCO5)ncnc3c2)CC1 [SARACATINIB] | > 2000 | > 2000 | > 2000 | > 2000 | > 2000 | > 2000 | > 2000 | > 2000 | > 2000 | > 2000 | > 2000 | > 2000 | > 2000 | > 2000 | > 2000 | > 2000 | > 2000 | > 2000 | > 2000 | > 2000 | IC50 (SW 954): > 2000 nM; IC50 (TE-1): 1440 nM; IC50 (ATN-1): > 2000 nM; IC50 (BB30-HNC): 862 nM; IC50 (BB65-RCC): > 2000 nM; IC50 (TE-8): 873 nM; IC50 (TK-10): 907 nM; IC50 (U-87 MG): > 2000 nM |
| CO[C@H]1C[C@@H]2CC[C@@H](C)[C@@](O)(O2)C(=O)C(=O)N2CCCC[C@H]2C(=O)O[C@H]([C@H](C)C[C@@H]2CC[C@@H](O)[C@H](OC)C2)CC(=O)[C@H](C)/C=C(\C)[C@@H](O)[C@@H](OC)C(=O)[C@H](C)C[C@H](C)/C=C/C=C/C=C/1C [SIROLIMUS] | > 100 | > 100 | > 100 | > 100 | > 100 | 51.5 | > 100 | 44.7 | > 100 | > 100 | > 100 | > 100 | > 100 | > 100 | 0.443 | 50.3 | 1.19 | < 0.391 | 4.34 | > 100 | IC50 (NCI-N87): > 100 nM; IC50 (SW 954): > 100 nM; IC50 (TE-1): > 100 nM; IC50 (ATN-1): > 100 nM; IC50 (BB30-HNC): > 100 nM; IC50 (BB65-RCC): > 100 nM; IC50 (TE-8): > 100 nM; IC50 (TK-10): > 100 nM; IC50 (U-87 MG): > 100 nM |
| CNC(=O)c1cc(Oc2ccc(NC(=O)Nc3ccc(Cl)c(C(F)(F)F)c3)cc2)ccn1 [SORAFENIB] | > 4000 | > 4000 | > 4000 | > 4000 | > 4000 | > 4000 | 2810 | > 4000 | > 4000 | > 4000 | 3480 | 3660 | > 4000 | > 4000 | > 4000 | > 4000 | > 4000 | > 4000 | 656 | > 4000 | IC50 (HCC 2998): 0.888 µM; IC50 (SW 954): > 4000 nM; IC50 (TE-1): > 4000 nM; IC50 (ATN-1): > 4000 nM; IC50 (BB65-RCC): 471 nM; IC50 (TE-8): > 4000 nM; IC50 (TK-10): > 4000 nM; IC50 (U-87 MG): > 4000 nM |
| CCC(=O)N1CCN(c2ccc(-n3c(=O)ccc4cnc5ccc(-c6cnc7ccccc7c6)cc5c43)cc2C(F)(F)F)CC1 [TORIN1] | 501 | 30 | 76.6 | 340 | 14.5 | 58 | 275 | 2.84 | 75.5 | 28.7 | 66 | 26.1 | 654 | > 1200 | 32.3 | 15.3 | 6.51 | 984 | 35.8 | > 1200 | IC50 (SW 954): 37.9 nM; IC50 (TE-1): 285 nM; IC50 (ATN-1): 27.9 nM; IC50 (BB30-HNC): 57.3 nM; IC50 (BB65-RCC): 36.9 nM; IC50 (TE-8): 90.2 nM; IC50 (TK-10): 40.2 nM; IC50 (U-87 MG): > 1200 nM |
| Cc1cc(Nc2cc(N3CCN(C)CC3)nc(Sc3ccc(NC(=O)C4CC4)cc3)n2)n[nH]1 [TOZASERTIB] | > 2000 | 335 | 1170 | > 2000 | 638 | > 2000 | > 2000 | > 2000 | > 2000 | 404 | > 2000 | > 2000 | > 2000 | > 2000 | 14.3 | 308 | > 2000 | > 2000 | > 2000 | > 2000 | IC50 (SW 954): 122 nM; IC50 (TE-1): > 2000 nM; IC50 (ATN-1): > 2000 nM; IC50 (BB30-HNC): 226 nM; IC50 (BB65-RCC): 1180 nM; IC50 (TE-8): 1800 nM; IC50 (TK-10): > 2000 nM; IC50 (U-87 MG): > 2000 nM |
